Results on 8 compounds are retold here after ChEMBL document CHEMBL1955743, “Potent inhibitors of LpxC for the treatment of Gram-negative infections” (J Med Chem, 2012).

Series [1] has as its target T1, UDP-3-O-acyl-N-acetylglucosamine deacetylase (Pseudomonas aeruginosa (strain ATCC 15692 / PAO1 / 1C / PRS 101 / LMG12228), UniProt P47205).
T1 sequence (P47205 whole entry): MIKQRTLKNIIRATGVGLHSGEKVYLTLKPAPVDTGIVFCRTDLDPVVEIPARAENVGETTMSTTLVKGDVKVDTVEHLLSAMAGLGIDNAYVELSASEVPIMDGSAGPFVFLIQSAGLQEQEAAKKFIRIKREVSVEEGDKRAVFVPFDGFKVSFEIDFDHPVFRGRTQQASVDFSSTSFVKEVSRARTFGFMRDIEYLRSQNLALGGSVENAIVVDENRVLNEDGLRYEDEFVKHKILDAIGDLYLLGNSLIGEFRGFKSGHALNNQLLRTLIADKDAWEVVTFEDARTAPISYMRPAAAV
The series is described as follows: Inhibition of Pseudomonas aeruginosa LpxC using UDP-3-O-(R-hydroxydecanoyl)-N-acetylglucosamine incubated for 30 mins prior to substrate addition measured after 60 mins by mass spectrophotometry.

The test system of series [2] is Pseudomonas aeruginosa. The series is described as follows: Antibacterial activity against Pseudomonas aeruginosa PAO1 after 16 to 20 hrs by broth microdilution method. The class given is functional. On the technique in general: Broth dilution looks for growth in wells or tubes with falling amounts of substance.
In a further series the test system is Staphylococcus aureus. Kind of series: Antibacterial activity against Staphylococcus aureus ATCC 29213 after 16 to 20 hrs by broth microdilution method. The class given is functional.
Series [3] deals with Pseudomonas aeruginosa. The series is described as follows: Antibacterial activity against Pseudomonas aeruginosa after 16 to 20 hrs by broth microdilution method. The class given is functional.
In a further series the test system is Klebsiella pneumoniae. The series is described as follows: Antibacterial activity against Klebsiella pneumoniae after 16 to 20 hrs by broth microdilution method. The class given is functional.
The subject of another series is Escherichia coli. The series is described as follows: Antibacterial activity against Escherichia coli after 16 to 20 hrs by broth microdilution method. The class given is functional.
For the next series, the system named is Klebsiella aerogenes. The series is described as follows: Antibacterial activity against Enterobacter aerogenes after 16 to 20 hrs by broth microdilution method. The class given is functional.
The test system of another series is Citrobacter freundii. The series is described as follows: Antibacterial activity against Citrobacter freundii after 16 to 20 hrs by broth microdilution method. The class given is functional.
For another series, the system named is Acinetobacter baumannii. Kind of series: Antibacterial activity against Acinetobacter baumannii after 16 to 20 hrs by broth microdilution method. The class given is functional.
Series [4] in a line: Clearance in rat at 10 mg/kg, iv. The class given is ADME, organism-based. On the set-up: dose 10 mg/kg, route intravenous. Conditions: in vivo.
Series [5] can be described thus: Volume of distribution at steady state in rat at 10 mg/kg, iv. Further details: dose 10 mg/kg, route intravenous. The class given is ADME, organism-based. The note with it: in vivo, read-out: Vdss.
The nature of series [6]: AUC in rat at 10 mg/kg, iv. The note with it: plasma. The class given is ADME, organism-based. Further details: dose 10 mg/kg, route intravenous.
Series [7] is described as follows: Half life in rat at 10 mg/kg, iv. The class given is ADME, organism-based. On the set-up: dose 10 mg/kg, route intravenous. Conditions: in vivo.
Series [8] deals with Pseudomonas aeruginosa. The series is described as follows: Antibacterial activity against Pseudomonas aeruginosa clinical isolates after 16 to 20 hrs by broth microdilution method. The class given is functional.

In brackets after ≈: the same amount, converted by molar mass.

Compound `C[C@@](CCc1ccc(-c2ccc(C#N)cc2)cc1)(C(=O)NO)S(C)(=O)=O` registered an IC50 in series [1] of 0.64 nM. The MIC with Pseudomonas aeruginosa [2] is 0.125 µg/mL (≈ 0.336 µM); with Staphylococcus aureus, above 64 µg/mL. The MIC90 came to 1 µg/mL (≈ 2.68 µM) in the series on Pseudomonas aeruginosa [3]; 2 µg/mL (≈ 5.37 µM) in the series with Klebsiella pneumoniae; 0.5 µg/mL (≈ 1.34 µM) in the series on Escherichia coli; 1 µg/mL (≈ 2.68 µM) in the series with Klebsiella aerogenes; 2 µg/mL (≈ 5.37 µM) with Citrobacter freundii; 16 µg/mL (≈ 43 µM) against Acinetobacter baumannii. Moreover, the clearance in series [4] worked out at 53 mL/min/kg. Further, in [5], the Vd was determined as 1.4 L/kg. For the same compound, the AUC in [6] is 3100 ng·h/mL. This compound showed a half-life in [7] of 36 min.

Regarding `C[C@@](CCc1ccc(-c2ccc(O)cc2)cc1)(C(=O)NO)S(C)(=O)=O`, the IC50 in series [1] stood at 3.68 nM. In addition, the figures for the MIC in the series on Pseudomonas aeruginosa [2] and against Staphylococcus aureus were 0.5 µg/mL (≈ 1.38 µM) and above 64 µg/mL, respectively. For the same compound, the MIC90 with Pseudomonas aeruginosa [3] was 2 µg/mL (≈ 5.5 µM); with Klebsiella pneumoniae it was 16 µg/mL (≈ 44 µM); with Escherichia coli it was 4 µg/mL (≈ 11 µM); against Klebsiella aerogenes it was 16 µg/mL (≈ 44 µM); in the series on Citrobacter freundii, 8 µg/mL (≈ 22 µM); with Acinetobacter baumannii, above 64 µg/mL. The compound further had an MIC90 in the series with Pseudomonas aeruginosa [8] of 4 µg/mL (≈ 11 µM). Further, in [4], the clearance came to 65 mL/min/kg. Further, the Vd in series [5] turned out to be 2.6 L/kg. This compound also returned an AUC in [6] of 2500 ng·h/mL. Further, in series [7], the half-life is 84 min. In the series with Pseudomonas aeruginosa [8], the MIC50 came to 1 µg/mL (≈ 2.75 µM).

For `C[C@@](CCc1ccc(-c2ccc(C(=O)CO)cc2)cc1)(C(=O)NO)S(C)(=O)=O`, the IC50 in series [1] is 1.85 nM. In addition, the MIC against Pseudomonas aeruginosa [2] is 0.5 µg/mL (≈ 1.23 µM); against Staphylococcus aureus it was above 64 µg/mL. Moreover, the MIC90 was 1 µg/mL (≈ 2.47 µM) against Pseudomonas aeruginosa [3]; 8 µg/mL (≈ 19.7 µM) against Klebsiella pneumoniae; 2 µg/mL (≈ 4.93 µM) against Escherichia coli; 4 µg/mL (≈ 9.87 µM) with Klebsiella aerogenes; 4 µg/mL (≈ 9.87 µM) against Citrobacter freundii; above 64 µg/mL in the series with Acinetobacter baumannii.

In the case of `C[C@@](CCc1ccc(-c2ccc3c(c2)OCO3)cc1)(C(=O)NO)S(C)(=O)=O`, half-maximal inhibition in series [1] (IC50) was put at 1.2 nM. Also, the MIC was 0.125 µg/mL (≈ 0.319 µM) against Pseudomonas aeruginosa [2] and above 64 µg/mL in the series with Staphylococcus aureus. Also, the MIC90 was 1 µg/mL (≈ 2.55 µM) against Pseudomonas aeruginosa [3]; 4 µg/mL (≈ 10.2 µM) in the series with Klebsiella pneumoniae; 0.5 µg/mL (≈ 1.28 µM) with Escherichia coli; 1 µg/mL (≈ 2.55 µM) in the series on Klebsiella aerogenes; 2 µg/mL (≈ 5.11 µM) against Citrobacter freundii; above 64 µg/mL against Acinetobacter baumannii.

`C[C@@H](O)[C@H](NC(=O)c1ccc(C#Cc2ccc(CN3CCOCC3)cc2)cc1)C(=O)NO`: the values for the MIC with Pseudomonas aeruginosa [2] and in the series with Staphylococcus aureus were 1 µg/mL (≈ 2.29 µM) and above 64 µg/mL, respectively. For the same compound, the MIC90 was 4 µg/mL (≈ 9.14 µM) against Pseudomonas aeruginosa [3]; 2 µg/mL (≈ 4.57 µM) with Klebsiella pneumoniae; 0.25 µg/mL (≈ 0.571 µM) with Escherichia coli; 0.5 µg/mL (≈ 1.14 µM) in the series with Klebsiella aerogenes; 0.5 µg/mL (≈ 1.14 µM) against Citrobacter freundii; above 64 µg/mL against Acinetobacter baumannii.

Compound `C[C@@](CCc1ccc(-c2ccc(F)cc2)cc1)(C(=O)NO)S(C)(=O)=O` yielded an IC50 in series [1] of 1.74 nM. Moreover, the MIC was 0.25 µg/mL (≈ 0.684 µM) in the series on Pseudomonas aeruginosa [2] and above 64 µg/mL in the series with Staphylococcus aureus. The MIC90 against Pseudomonas aeruginosa [3] stood at 1 µg/mL (≈ 2.74 µM); in the series with Klebsiella pneumoniae it was 8 µg/mL (≈ 21.9 µM); against Escherichia coli, 1 µg/mL (≈ 2.74 µM); against Klebsiella aerogenes it was 2 µg/mL (≈ 5.47 µM); against Citrobacter freundii it was 4 µg/mL (≈ 10.9 µM); in the series with Acinetobacter baumannii it was 32 µg/mL (≈ 87.6 µM).

Take `C[C@@](CCc1ccc(-c2ccc(O)cc2)cc1)(C(=O)O)S(C)(=O)=O`: in series [1], the IC50 is above 92.5 nM. The MIC in the series on Pseudomonas aeruginosa [2] and in the series with Staphylococcus aureus was above 64 µg/mL throughout. In series [4], the clearance was 15 mL/min/kg. In [5], the Vd worked out at 0.4 L/kg. For the same compound, the AUC in series [6] is 10900 ng·h/mL. Also, the half-life in series [7] was 42 min.

On to `C[C@@](CCc1ccc(-c2ccc(OCCCN3CCOCC3)cc2)cc1)(C(=O)NO)S(C)(=O)=O`, for which the MIC against Pseudomonas aeruginosa [2] was 2 µg/mL (≈ 4.08 µM); against Staphylococcus aureus it was above 64 µg/mL. Moreover, the MIC90 is 4 µg/mL (≈ 8.15 µM) in the series on Pseudomonas aeruginosa [3]; 4 µg/mL (≈ 8.15 µM) against Klebsiella pneumoniae; 0.5 µg/mL (≈ 1.02 µM) in the series with Escherichia coli; 1 µg/mL (≈ 2.04 µM) against Klebsiella aerogenes; 1 µg/mL (≈ 2.04 µM) against Citrobacter freundii; above 64 µg/mL in the series on Acinetobacter baumannii.

A word on the IC50: it is the concentration that gives 50% inhibition. What is called MIC is the lowest concentration found to suppress growth. The low end stands for a more susceptible organism, the high end for a less susceptible organism. Usually MIC90 stands for the lowest concentration that inhibits either 90% of growth or 90% of the strains tested, depending on the study. What is called clearance is the rate of elimination divided by the concentration. Low readings indicate inefficient removal, high ones efficient removal. Usually AUC stands for concentration integrated over time. Lower therefore signals low exposure. Broadly, the half-life is how long it takes for the measured level to halve. High values mean slow decline, low ones rapid decline. A word on the MIC50: it is the lowest concentration that inhibits either 50% of growth or 50% of the strains tested, depending on the study. A low value points to higher susceptibility.
